Source: patent US20250051337A1 (priority 2021, published 2025)

Assays:
STK3 [1] = biological target: T1, STK3 (Homo sapiens (Human), UniProt Q13188); assay: ADP-Glo kinase assay, STK3; type: biochemical; conditions: ADP-Glo, 50 μM ATP; read-out: STK3 IC50
Outline: (§1)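 ADP-Glo readout at 50 μM ATP with 50 ng full-length enzyme: STK4 on 300 μg/mL Axltide substrate, STK3 on 250 μg/mL myelin basic protein. Done as three independent runs in triplicate.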

STK4 [2] = biological target: T2, STK4 (Homo sapiens (Human), UniProt Q13043); assay: ADP-Glo kinase assay, STK4; type: biochemical
Outline: as §1

[3] = system: phosphorylated MOB1 (Thr35) in HEK293 cells; assay: Western blot analysis of p-MOB1 in HEK293 cells; type: cell-based; conditions: 10 μM, 4 h, then H2O2 50 μM 2 h, vs DMSO
Procedure: Cells were harvested by pipetting, pelleted by centrifugation at 1400 rpm for 4 min, and lysed in RIPA buffer for 10 min at room temperature. The lysates were centrifuged at 12,000×g at room temperature (RT) for 10 min and the supernatants were recovered. Protein concentrations in the supernatants were determined using a BCA assay (Pierce/Thermo Scientific). Proteins were separated on NovexTM WedgeWellTM 4-20% Tris-Glycine Gels (Invitrogen; Carlsbad, CA, USA) and transferred to polyvinylidene difluoride (Trans-Blot® TurboTM Transfer Pack) membranes. […] Danvers. MA. USA). Blots were rinsed three times with TBST and then incubated in 5% nonfat milk containing horseradish peroxidase (HRP)-conjugated mouse anti-rabbit IgG secondary Ab (Cell Signaling Technology) for 1 h at RT. Blots were washed three times with TBST, developed using Pierce® ECL Western Blotting reagent, and imaged and analyzed using with ImageJ software. Quantitative data are expressed as the level of phosphorylated MOB1 normalized to total MOB1. To confirm that the cellular mechanism of action of our inhibitors was through inhibition of Hippo pathway signaling. […] Inhibition of STK3/4 in vitro and in vivo can produce decreased phosphorylation of the Hippo pathway adapter protein MOB1 at […].

LRRK2 = LRRK2 (Homo sapiens (Human), UniProt Q5S007); assay: NanoBRET intracellular kinase assay, LRRK2; type: cell-based; conditions: transfected HEK293 cells, 2 h
Procedure: Full-length STK3, STK4, and LRRK2 kinase was cloned in-frame with a C-terminal NanoLuc-fusion (Promega: Madison, WI, USA) and the plasmid was transfected into HEK293T cells using FuGENE HD (Promega, E2312). After 20 h, transfected cells were mixed with inhibitors and 50 nM NanoBRET Kinase Tracer K10 (Promega) and reseeded at a density of 2× 10^5 cells/mL in Opti-Minimal Essential Medium (MEM) without phenol red (Life Technologies; Carlsbad, CA, USA) in 384-well plates (Greiner 781-207; Kremsmunster, Austria). After 2 h at 37° C. in a 5% CO2 atmosphere, NanoBRET NanoGlo Substrate+Extra-cellular NanoLuc Inhibitor (Promega, N2540) was added, and filtered luminescence was measured on a PHERAstar plate reader (BMG Labtech; Ortenberg, Germany) equipped with a lumi-nescence filter pair (450 nm BP filter (donor) and 610 nm LP filter (acceptor)).
To confirm cellular potency for compounds described herein, the […] were used to detect engagement of STK3 and STK4 in live cells using the NanoBRET™ intracellular kinase assay, marking the first report of a NanoBRET assay for STK3 and STK4. This assay measured the apparent affinity of test compounds by competitive displacement of the NanoBRET™ tracer, reversibly bound to a NanoLuc® luciferase-kinase fusion in cells. To evaluate potential off-target activity of the inhibitors, the inhibition of LRRK2 in live cells by the STK3/4 inhibitors compounds described herein were measured. Cultured HEK293 cells were either transfected with NanoLuc®-STK3 fusion vector, NanoLuc®-STK4 fusion, or with NanoLuc®-LRRK2 vector for 24 h. A 50 nM tracer and these compounds were added to cells and incubated for 2 h. These compounds tested in the assays decreased the NanoBRET™ signal for both STK3 and STK4 at varying potencies and confirming cellular target engagement of STK3/4.

STK3 [4] = biological target: T1, STK3; assay: Thermal shift assay (ThermoFluor differential scanning fluorimetry); type: binding; conditions: read-out: ΔTm
Procedure: Temperature-dependent protein unfolding profiles were measured using a Real-Time PCR Mx3005p machine (Stratagene: San Diego, CA, USA). Data evaluation and melting temperature calculation were performed using Protein Thermal Shift™ Software v1.2.
To further evaluate binding of these compounds to STK3/4, differential scanning fluorimetry (protein thermal shift using ThermoFluor technology) assay was used to benchmark the capacity to stabilize the kinase domain. The melting temperature (Tm) of STK3 or STK4 was measured in the presence of vehicle (DMSO) or 6, 11 or 23.

[5] = system: YAP/TAZ-TEAD activity (8×GTIIC-luciferase) in HEK293 cells; assay: YAP-TAZ-TEAD luciferase assay; type: cell-based; conditions: 10 μM, 48 h, vs DMSO
Procedure: 8×GTIIC-luciferase was a gift from Stefano Piccolo (Addgene plasmid #34615, http://n2t.net/addgene: 34615: RRID: Addgene_34615). HEK293 cells were transfected with 8×GTIIC-luciferase plasmid and control Renilla luciferase plasmid using jetPRIME transfection reagent (Polyplus-transfection RSA: New York, NY. USA) for 24 h and cultured in Dulbeco's Modified Eagle Media (DMEM) Glutamax supplemented with 10% Fetal Bovine Serum (FBS), antibiotic/antimycotic, and sodium pyruvate (Gibco. Thermo FisherScientific: Waltham. MA. USA). The transfected cells were treated with 10 μM compound in triplicate and incubated for 48 h at 37° C. Firefly and Renilla luminescence were detected with a Dual-Glo Luciferase Assay System (Promega #E2920) according to the manufacturer's recommendations. The ratio of firefly to Renilla luminescence was calculated for each well and normalized to the ratio in control cells incubated with DMSO.
STK3/4 can negatively regulate the activity of the YAP/TAZ-TEAD protein complex and, accordingly, inactivation of these kinases reduces the transcription of YAP/TAZ-TEAD target genes. […] The results confirmed the intracellular on-target activity of our potent compounds for inhibiting STK3 and STK4 activity and targeting gene expression in the Hippo signaling pathway.

STK3 [6] = biological target: T1, STK3; assay: NanoBRET intracellular kinase assay, STK3; type: cell-based; conditions: NanoBRET, transfected HEK293 cells, 2 h; read-out: STK3: IC50
Procedure: (§2) Full-length STK3, STK4, and LRRK2 kinase was cloned in-frame with a C-terminal NanoLuc-fusion (Promega: Madison, WI, USA) and the plasmid was transfected into HEK293T cells using FuGENE HD (Promega, E2312). […] After 2 h at 37° C. in a 5% CO2 atmosphere, NanoBRET NanoGlo Substrate+Extra-cellular NanoLuc Inhibitor (Promega, N2540) was added, and filtered luminescence was measured on a PHERAstar plate reader (BMG Labtech; Ortenberg, Germany) equipped with a lumi-nescence filter pair (450 nm BP filter (donor) and 610 nm LP filter (acceptor)).
(§3) This assay measured the apparent affinity of test compounds by competitive displacement of the NanoBRET™ tracer, reversibly bound to a NanoLuc® luciferase-kinase fusion in cells. To evaluate potential off-target activity of the inhibitors, the inhibition of LRRK2 in live cells by the STK3/4 inhibitors compounds described herein were measured. […] A 50 nM tracer and these compounds were added to cells and incubated for 2 h.

[7] = In vivo plasma and liver concentrations, 20 mg/kg intraperitoneal; conditions: female, C57BL/6J, mouse, ip, 20 mg/kg
Procedure: All animal procedures were approved by the Sanford Burnham Prebys Medical Discovery Institute Institutional Animal Care and Use Committee and were performed according to the NIH guidelines for the Care and Use of Laboratory Animals. Adult female C57BL/6J mice were purchased from Jackson Laboratories and housed with free access to food and water on a 12 h light/dark cycle. Compounds were formulated in 5% DMSO, 10% Tween-80, and 85% H2O and injected intraperitoneally at 10 or 20 mg/kg. Blood samples were collected retro-orbitally at the indicated times and plasma was prepared by centrifugation. Livers were collected post mortem at the indicated times.
For quantification of compound, plasma samples were extracted with acetonitrile: water 4:1 with 0.1% formic acid containing indomethacin as an internal standard. Samples were centrifuged and the supernatants were diluted with acetonitrile: water and analyzed by LC-MS/MS using a Shimadzu Nexera X2 High-performance liquid chromatography (HPLC) (Shimadzu Scientific Instruments: Kyoto, Japan) coupled to an AB Sciex 6500 QTRAP (AB Sciex LLC: Toronto, Canada).
Adult female C57BL/6 mice (n=3/group) were intraperitoneally injected with vehicle or test compound (20 mg/kg), and blood samples and livers were collected at 30 min and 1 h post-injection, respectively. Plasma concentrations of all 13 compounds were >1.4 μM at 30 min after injection, and 10 compounds had liver concentrations >1.0 μM at 1 h after injection, as measured by LC-MS/MS, with particularly high plasma concentrations obtained with compounds 11 (15.9 μM), 16 (11.6 μM) and 105 (8.7 μM) (Table 5). To evaluate target engagement in vivo, the total and phosphorylated MOB1 levels in livers collected at 1 h post-injection was examined.
Tween 80 and water and were administered to mice by intraperitoneal injection. Blood samples and livers were collected at 30 min and 1 h post-dose, respectively. Plasma concentrations and relative pMOB1 levels were determined by LC-MS/MS and western blot analysis, respectively. (n=3).

STK4 [8] = biological target: T2, STK4; assay: NanoBRET intracellular kinase assay, STK4; type: cell-based; conditions: transfected HEK293 cells, 2 h
Procedure: as §2, §3

[9] = system: ULK1/2 and Aurora kinases; conditions: including inhibition of ULK1/2 and Aurora kinases; cited from earlier work
[10] = ADP-Glo, 50 μM ATP, read-out: STK4 IC50

Sequence of LRRK2 (Q5S007 whole entry, species assumed, the tested form may be a part): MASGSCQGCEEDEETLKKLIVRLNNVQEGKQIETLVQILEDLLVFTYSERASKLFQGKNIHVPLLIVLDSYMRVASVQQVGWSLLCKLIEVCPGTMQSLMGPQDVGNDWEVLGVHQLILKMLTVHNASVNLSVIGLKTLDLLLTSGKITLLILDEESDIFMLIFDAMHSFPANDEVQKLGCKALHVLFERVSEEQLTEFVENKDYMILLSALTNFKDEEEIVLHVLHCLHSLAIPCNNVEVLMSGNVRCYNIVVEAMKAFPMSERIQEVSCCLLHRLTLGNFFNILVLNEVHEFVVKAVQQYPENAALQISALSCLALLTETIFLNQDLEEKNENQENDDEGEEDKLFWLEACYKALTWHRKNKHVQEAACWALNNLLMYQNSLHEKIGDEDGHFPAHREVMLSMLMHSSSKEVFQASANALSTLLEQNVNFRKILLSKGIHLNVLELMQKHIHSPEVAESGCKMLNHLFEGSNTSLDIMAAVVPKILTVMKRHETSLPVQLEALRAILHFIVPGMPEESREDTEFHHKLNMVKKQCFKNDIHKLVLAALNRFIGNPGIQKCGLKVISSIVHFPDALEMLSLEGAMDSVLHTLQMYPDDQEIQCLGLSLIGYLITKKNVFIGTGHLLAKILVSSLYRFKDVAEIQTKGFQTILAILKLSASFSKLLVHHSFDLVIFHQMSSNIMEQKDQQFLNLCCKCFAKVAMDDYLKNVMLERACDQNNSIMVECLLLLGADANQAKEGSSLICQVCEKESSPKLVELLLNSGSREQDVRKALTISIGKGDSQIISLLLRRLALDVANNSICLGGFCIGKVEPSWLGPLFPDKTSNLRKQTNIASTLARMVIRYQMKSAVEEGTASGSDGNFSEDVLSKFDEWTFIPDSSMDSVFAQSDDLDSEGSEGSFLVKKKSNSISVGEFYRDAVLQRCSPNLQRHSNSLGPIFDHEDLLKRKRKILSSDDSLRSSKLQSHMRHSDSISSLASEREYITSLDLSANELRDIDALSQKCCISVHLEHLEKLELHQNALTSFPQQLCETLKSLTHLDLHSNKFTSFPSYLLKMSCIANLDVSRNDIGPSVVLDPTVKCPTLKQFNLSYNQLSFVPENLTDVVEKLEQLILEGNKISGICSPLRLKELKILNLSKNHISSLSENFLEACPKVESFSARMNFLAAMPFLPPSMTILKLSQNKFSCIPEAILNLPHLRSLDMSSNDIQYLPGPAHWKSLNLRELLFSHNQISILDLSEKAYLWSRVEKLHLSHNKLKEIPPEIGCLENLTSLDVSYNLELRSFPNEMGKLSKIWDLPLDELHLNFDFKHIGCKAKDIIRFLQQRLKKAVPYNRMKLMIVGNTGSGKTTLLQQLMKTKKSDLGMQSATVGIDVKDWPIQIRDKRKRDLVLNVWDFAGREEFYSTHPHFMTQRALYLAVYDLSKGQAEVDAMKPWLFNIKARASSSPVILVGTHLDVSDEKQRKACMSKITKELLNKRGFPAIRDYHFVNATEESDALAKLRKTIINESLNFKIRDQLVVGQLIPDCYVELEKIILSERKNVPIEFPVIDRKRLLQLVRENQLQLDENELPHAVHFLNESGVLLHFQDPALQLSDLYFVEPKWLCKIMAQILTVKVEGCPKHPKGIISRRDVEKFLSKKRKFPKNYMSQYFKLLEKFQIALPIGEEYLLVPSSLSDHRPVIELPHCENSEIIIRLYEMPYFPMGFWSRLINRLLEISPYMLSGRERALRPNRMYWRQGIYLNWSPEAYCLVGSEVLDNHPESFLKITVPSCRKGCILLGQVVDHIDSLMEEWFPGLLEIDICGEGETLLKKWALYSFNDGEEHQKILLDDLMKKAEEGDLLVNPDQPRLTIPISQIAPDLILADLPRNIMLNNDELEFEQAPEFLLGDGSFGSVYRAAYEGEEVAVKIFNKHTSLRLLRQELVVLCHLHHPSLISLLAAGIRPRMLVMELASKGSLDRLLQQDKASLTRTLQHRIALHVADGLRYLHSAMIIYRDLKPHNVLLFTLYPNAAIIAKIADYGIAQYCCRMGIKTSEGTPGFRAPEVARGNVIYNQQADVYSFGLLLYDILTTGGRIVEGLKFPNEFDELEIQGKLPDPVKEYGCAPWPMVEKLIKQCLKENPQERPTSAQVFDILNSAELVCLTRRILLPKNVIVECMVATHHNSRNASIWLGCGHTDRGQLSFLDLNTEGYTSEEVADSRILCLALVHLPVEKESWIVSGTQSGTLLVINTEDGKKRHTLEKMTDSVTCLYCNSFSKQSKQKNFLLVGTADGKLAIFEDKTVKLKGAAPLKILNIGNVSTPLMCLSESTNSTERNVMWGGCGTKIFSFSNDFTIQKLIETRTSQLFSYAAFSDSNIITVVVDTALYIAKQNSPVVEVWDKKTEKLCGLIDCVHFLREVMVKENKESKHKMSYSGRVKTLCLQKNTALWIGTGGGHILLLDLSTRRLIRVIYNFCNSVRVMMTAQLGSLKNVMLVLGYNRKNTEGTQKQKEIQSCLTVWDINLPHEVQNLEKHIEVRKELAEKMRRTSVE
T1 sequence (Q13188 whole entry): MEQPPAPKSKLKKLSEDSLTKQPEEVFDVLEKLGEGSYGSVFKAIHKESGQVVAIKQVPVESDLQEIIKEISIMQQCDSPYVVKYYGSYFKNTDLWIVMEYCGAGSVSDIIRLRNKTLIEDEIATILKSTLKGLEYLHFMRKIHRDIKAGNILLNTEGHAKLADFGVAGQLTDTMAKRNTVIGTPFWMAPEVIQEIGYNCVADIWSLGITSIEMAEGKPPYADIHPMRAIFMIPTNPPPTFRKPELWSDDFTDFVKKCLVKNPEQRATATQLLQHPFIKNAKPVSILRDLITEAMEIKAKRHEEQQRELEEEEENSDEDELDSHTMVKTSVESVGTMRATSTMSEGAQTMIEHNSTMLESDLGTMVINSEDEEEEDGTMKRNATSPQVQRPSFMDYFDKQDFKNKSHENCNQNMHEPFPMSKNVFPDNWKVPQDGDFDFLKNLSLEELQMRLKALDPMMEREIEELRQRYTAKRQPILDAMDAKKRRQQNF
T2 sequence (Q13043 whole entry): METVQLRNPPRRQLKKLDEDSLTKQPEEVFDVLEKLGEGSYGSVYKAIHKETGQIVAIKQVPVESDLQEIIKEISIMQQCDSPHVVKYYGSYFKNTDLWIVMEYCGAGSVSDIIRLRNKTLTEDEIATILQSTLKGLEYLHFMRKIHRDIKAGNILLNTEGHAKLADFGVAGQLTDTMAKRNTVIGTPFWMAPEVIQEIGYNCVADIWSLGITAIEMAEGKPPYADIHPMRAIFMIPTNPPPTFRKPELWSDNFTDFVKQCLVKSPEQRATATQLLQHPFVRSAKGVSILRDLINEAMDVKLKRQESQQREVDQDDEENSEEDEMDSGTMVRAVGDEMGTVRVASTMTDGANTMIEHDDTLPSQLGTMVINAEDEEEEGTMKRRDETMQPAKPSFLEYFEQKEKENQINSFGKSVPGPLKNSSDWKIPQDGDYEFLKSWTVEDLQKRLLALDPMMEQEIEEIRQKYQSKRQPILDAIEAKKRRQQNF

| SMILES | IC50 (STK3 [1]) [nM] | IC50 (STK4 [2]) [nM] | relative expression level of phosphorylated MOB1 [3] | IC50 (LRRK2) [nM] | ΔTm at 10 µM (STK3 [4]) [°C] | YAP/TAZ-TEAD activity (luciferase reporter) [5] | IC50 (STK3 [6]) [nM] | concentration at 30 min [7] [µM] | concentration at 1 h [7] [µM] | LRRK2: IC50 (LRRK2) | IC50 (STK4 [8]) [nM] | IC50 (STK4 [2]; [10]) [nM] | off-target activity in vitro [9] |
| --- | --- | --- | --- | --- | --- | --- | --- | --- | --- | --- | --- | --- | --- |
| Cc1ccccc1-c1c[nH]c2ncnc(N3CCOCC3)c12 [Compound 2, 4-(5-(o-Tolyl)-7H-pyrrolo[2,3-d]pyrimidin-4-yl)morpholine] | > 5000 | 1000 to 5000 | significant reduction | – | – | – | – | – | – | – | – | – | – |
| Fc1cccc(-c2c[nH]c3ncnc(N4CCOCC4)c23)c1 [Compound 7, 4-(5-(3-Fluorophenyl)-7H-pyrrolo[2,3-d]pyrimidin-4-yl)morpholine] | < 1000 | – | – | ≤ 1000 | 8.4 | marked increase | < 1000 | 6 | 14.9 | – | – | – | – |
| CN(CCO)c1ncnc2[nH]cc(-c3cccc(Cl)c3)c12 [Compound 108, 2-((5-(3-chlorophenyl)-7H-pyrrolo[2,3-d]pyrimidin-4-yl)(methyl)amino)ethan-1-ol] | < 1000 | – | significant reduction | – | – | – | < 1000 | 7.3 | 0.9 | B (B: IC50 is >2000 nM and <1000 nM) | < 1000 | < 1000 | – |
| CC(CO)CN(C)c1ncnc2[nH]cc(-c3cccc(Cl)c3)c12 (stereo not drawn) [Compound 121, 3-((5-(3-chlorophenyl)-7H-pyrrolo[2,3-d]pyrimidin-4-yl)(methyl)amino)-2-methylpropan-1-ol] | < 1000 | – | significant reduction | ≥ 2000 | – | – | < 1000 | 1.8 | 0.006 | – | < 1000 | < 1000 | – |
| CN1C(=O)c2sccc2N(C)c2nc(Nc3ccc(S(N)(=O)=O)cc3)ncc21 [XMU-MP-1] | – | – | – | – | – | – | – | – | – | – | – | – | notable off-target activity |
